Holding throughout (type): cell-based
For one test, the target named is NK1 (Homo sapiens, UniProt P25103). Kind of test: Signal transduction (ST), intracellular Ca++ FLIPR, NK1. Conditions: antagonist response, Ca++ transient peak, read-out: NK1 pIC50 (converted). On the procedure:
This test evaluates in vitro functional NK1 antagonistic activity. For the measurements of intracellular Ca^++ concentrations the cells were grown on 96-well (black wall/transparent bottom) plates from Costar for 2 days until they reached confluence. The cells were loaded with 2 μM Fluo3 in DMEM containing 0.1% BSA and 2.5 mM probenecid for 1 h at 37° C. They were washed 3× with a Krebs buffer (140 mM NaCl, 1 mM MgCl2×6H2O, 5 mM KCl, 10 mM glucose, 5 mM HEPES; 1.25 mM CaCl2; pH 7.4) containing 2.5 mM probenecid and 0.1% BSA (Ca^++-buffer). The cells were preincubated with a concentration range of antagonists for 20 min at RT and Ca^++-signals after addition of the agonists were measured in a Fluorescence Inage Plate Reader (FLIPR from Molecular Devices, Crawley, England). The peak of the Ca^++-transient was considered as the relevant signal and the mean values of corresponding wells were analysed as described below. The sigmoidal dose response curves were analysed by computerised curve-fitting, using the GraphPad Program. The EC50-value of a compound is the effective dose showing 50% of maximal effect. For mean curves the response to the agonist with the highest potency was normalised to 100%. For antagonist responses the IC50-value was calculated using non-linear regression. The last column indicates—without being limited thereto—for which use the compounds might be most suitable.

A further test concerns the target T1, NK2 (Homo sapiens, UniProt P21452).
T1 sequence (P21452 1-398): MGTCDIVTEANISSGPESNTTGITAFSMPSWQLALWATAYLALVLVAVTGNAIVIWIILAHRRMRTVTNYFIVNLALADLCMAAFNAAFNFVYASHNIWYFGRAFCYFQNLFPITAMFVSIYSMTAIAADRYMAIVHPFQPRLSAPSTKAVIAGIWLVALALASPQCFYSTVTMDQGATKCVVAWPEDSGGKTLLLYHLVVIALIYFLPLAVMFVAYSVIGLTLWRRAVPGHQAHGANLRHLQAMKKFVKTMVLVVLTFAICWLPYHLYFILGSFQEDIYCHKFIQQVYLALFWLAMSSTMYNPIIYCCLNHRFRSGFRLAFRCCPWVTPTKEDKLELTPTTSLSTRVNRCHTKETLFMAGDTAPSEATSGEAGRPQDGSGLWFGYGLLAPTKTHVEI
Kind of test: Signal transduction (ST), intracellular Ca++ FLIPR, NK2. Particulars: antagonist response, Ca++ transient peak, read-out: NK2 pIC50 (converted).

The next test concerns the target T2, NK3 (Homo sapiens, UniProt P29371).
T2 sequence (P29371 1-465): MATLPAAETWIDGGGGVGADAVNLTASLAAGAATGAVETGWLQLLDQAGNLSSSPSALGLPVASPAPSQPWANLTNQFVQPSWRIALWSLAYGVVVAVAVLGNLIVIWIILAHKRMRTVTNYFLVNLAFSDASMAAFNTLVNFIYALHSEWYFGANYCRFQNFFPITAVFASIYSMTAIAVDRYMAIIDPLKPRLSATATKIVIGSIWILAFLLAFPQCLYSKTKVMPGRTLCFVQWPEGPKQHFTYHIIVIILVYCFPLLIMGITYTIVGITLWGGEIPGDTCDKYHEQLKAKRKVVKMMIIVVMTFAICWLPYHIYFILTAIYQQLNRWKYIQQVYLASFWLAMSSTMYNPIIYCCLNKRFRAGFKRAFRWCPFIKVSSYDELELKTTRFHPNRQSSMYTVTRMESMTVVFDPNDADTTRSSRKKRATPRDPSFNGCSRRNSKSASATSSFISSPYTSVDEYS
The experiment in a line: Signal transduction (ST), intracellular Ca++ FLIPR, NK3. Conditions: antagonist response, Ca++ transient peak, read-out: NK3 pIC50 (converted).

Sequence of NK1 (P25103 whole entry): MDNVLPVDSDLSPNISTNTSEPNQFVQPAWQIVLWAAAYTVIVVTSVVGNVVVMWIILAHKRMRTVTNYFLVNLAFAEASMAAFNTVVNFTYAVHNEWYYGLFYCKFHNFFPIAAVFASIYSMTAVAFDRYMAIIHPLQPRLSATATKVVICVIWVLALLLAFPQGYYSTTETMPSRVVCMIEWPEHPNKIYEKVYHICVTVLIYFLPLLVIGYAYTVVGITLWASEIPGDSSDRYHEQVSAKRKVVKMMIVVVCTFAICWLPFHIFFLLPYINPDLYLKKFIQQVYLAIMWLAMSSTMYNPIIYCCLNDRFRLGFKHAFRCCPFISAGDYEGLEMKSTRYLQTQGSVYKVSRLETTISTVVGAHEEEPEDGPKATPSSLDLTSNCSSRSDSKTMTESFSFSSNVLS

Take `O=C(c1cc(C(F)(F)F)cc(C(F)(F)F)c1)N1CCC(N2CCC3(CCCN3C(=O)C3CCOC3)C2)CC1Cc1ccccc1` (single isomer, unassigned) [Compound 1-5]: the IC50 at NK1 was 50.1 nM; at NK2, 6310 nM.
Take `O=C(c1cc(C(F)(F)F)cc(C(F)(F)F)c1)N1CCC(N2CCC3(CCCN3C(=O)C3CCOC3)C2)CC1Cc1ccccc1` (single isomer, unassigned) [Compound 1-6]: the IC50 is 63.1 nM on NK1, 1580 nM on NK2 and > 10000 nM at NK3.
The matching figures for `O=C(c1cc(C(F)(F)F)cc(C(F)(F)F)c1)N1CCC(N2CCC3(CCCN3Cc3ccccc3)C2)CC1Cc1ccccc1` (stereo not drawn) [Compound 1-2]: 631 nM, > 10000 nM and > 10000 nM.
Consider `O=C(c1cc(C(F)(F)F)cc(C(F)(F)F)c1)N1CCC(N2CCC3(CCCN3C(=O)C3CC3)C2)CC1Cc1ccccc1` (stereo not drawn) [Compound 1-3], for which the figures for the IC50 at NK1, at NK2 and at NK3 were 251 nM, 3980 nM and > 10000 nM, respectively.
Consider `O=C(c1cc(C(F)(F)F)cc(C(F)(F)F)c1)N1CC[C@H](N2CCC3(CCCN3C(=O)c3ccoc3)C2)C[C@H]1Cc1ccccc1` (stereo partly drawn) [Compound 1-7], for which the IC50 at NK1 is 100 nM; on NK2, 3160 nM; at NK3 it was > 10000 nM.
Consider `O=C(c1cc(C(F)(F)F)cc(C(F)(F)F)c1)N1CC[C@@H](N2CCC3(CCCN3C(=O)c3ccoc3)C2)C[C@H]1Cc1ccccc1` (stereo partly drawn) [Compound 1-8], for which the figures for the IC50 on NK1, at NK2 and at NK3 were 100 nM, 6310 nM and > 10000 nM, respectively.
With `O=C(c1cc(C(F)(F)F)cc(C(F)(F)F)c1)N1CC[C@@H](N2CCC3(CCCN3C(=O)c3cccs3)C2)C[C@H]1Cc1ccccc1` (stereo partly drawn) [Compound 1-9], the IC50 is 50.1 nM on NK1, 6310 nM at NK2 and > 10000 nM on NK3.
For `O=C(c1cc(C(F)(F)F)cc(C(F)(F)F)c1)N1CC[C@H](N2CCC3(CCCN3C(=O)c3ccccc3)C2)C[C@H]1Cc1ccccc1` (stereo partly drawn) [Compound 1-10] the same measures were 200 nM, 5010 nM and > 10000 nM.
With `O=C(c1cc(C(F)(F)F)cc(C(F)(F)F)c1)N1CC[C@@H](N2CCC3(CCCN3C(=O)c3ccccc3)C2)C[C@H]1Cc1ccccc1` (stereo partly drawn) [Compound 1-11], the IC50 at NK1 was 158 nM; at NK3, > 10000 nM.
Consider `O=C(c1cc(C(F)(F)F)cc(C(F)(F)F)c1)N1CC[C@@H](N2CCC3(CCCN3C(=O)c3cnccn3)C2)C[C@H]1Cc1ccccc1` (stereo partly drawn) [Compound 1-12], for which the IC50 was 200 nM at NK1, 3980 nM at NK2 and > 10000 nM on NK3.
Consider `CC(C)(C)C(=O)N1CCC2(CCN([C@H]3CCN(C(=O)c4cc(C(F)(F)F)cc(C(F)(F)F)c4)[C@H](Cc4ccccc4)C3)C2)C1` (stereo partly drawn) [Compound 2-3], for which the IC50 is 63.1 nM at NK1, 3160 nM on NK2 and 6310 nM on NK3.
For `O=C(C1CC1)N1CCC2(CCN(C3CCN(C(=O)c4cc(C(F)(F)F)cc(C(F)(F)F)c4)C(Cc4ccccc4)C3)C2)C1` (stereo not drawn) [Compound 2-4], the IC50 on NK1 was 100 nM; at NK2, 2510 nM.
As to `O=C(C1CCOC1)N1CCC2(CCN([C@H]3CCN(C(=O)c4cc(C(F)(F)F)cc(C(F)(F)F)c4)[C@H](Cc4ccccc4)C3)C2)C1` (stereo partly drawn) [Compound 2-5], the IC50 on NK1 is 39.8 nM; at NK2, 2510 nM; at NK3, 2000 nM.
Turning to `O=C(c1ccoc1)N1CCC2(CCN([C@H]3CCN(C(=O)c4cc(C(F)(F)F)cc(C(F)(F)F)c4)[C@H](Cc4ccccc4)C3)C2)C1` (stereo partly drawn) [Compound 2-6], the IC50 at NK1 was 50.1 nM; at NK2, 5010 nM; at NK3, 3160 nM.
For `O=C(c1cccs1)N1CCC2(CCN([C@H]3CCN(C(=O)c4cc(C(F)(F)F)cc(C(F)(F)F)c4)[C@H](Cc4ccccc4)C3)C2)C1` (stereo partly drawn) [Compound 2-7], the figures for the IC50 at NK1, at NK2 and at NK3 were 158 nM, 6310 nM and 2510 nM, respectively.
The matching figures for `Cc1nnsc1C(=O)N1CCC2(CCN([C@H]3CCN(C(=O)c4cc(C(F)(F)F)cc(C(F)(F)F)c4)[C@H](Cc4ccccc4)C3)C2)C1` (stereo partly drawn) [Compound 2-8]: 100 nM, 6310 nM and 3980 nM.
Take `O=C(c1ccccc1)N1CCC2(CCN([C@H]3CCN(C(=O)c4cc(C(F)(F)F)cc(C(F)(F)F)c4)[C@H](Cc4ccccc4)C3)C2)C1` (stereo partly drawn) [Compound 2-9]: the results for the IC50 at NK1, on NK2 and at NK3 were 126 nM, 5010 nM and 3980 nM, respectively.
For `O=C(c1cnccn1)N1CCC2(CCN([C@H]3CCN(C(=O)c4cc(C(F)(F)F)cc(C(F)(F)F)c4)[C@H](Cc4ccccc4)C3)C2)C1` (stereo partly drawn) [Compound 2-10] the same measures were 251 nM, 5010 nM and > 10000 nM.

These data come from patent US8604200B2, “Diaza-spiro-{4,4}-nonane derivatives as neurokinin (NK1) antagonists” (Janssen Pharmaceutica N.V., priority 2005, dated 2013).
